The target of the experiment is T1, human SCD1 (hSCD-1) (Homo sapiens, UniProt O00767).
T1 construct: made in house; host or cells: baculovirus/Sf9
T1 sequence (O00767 1-359): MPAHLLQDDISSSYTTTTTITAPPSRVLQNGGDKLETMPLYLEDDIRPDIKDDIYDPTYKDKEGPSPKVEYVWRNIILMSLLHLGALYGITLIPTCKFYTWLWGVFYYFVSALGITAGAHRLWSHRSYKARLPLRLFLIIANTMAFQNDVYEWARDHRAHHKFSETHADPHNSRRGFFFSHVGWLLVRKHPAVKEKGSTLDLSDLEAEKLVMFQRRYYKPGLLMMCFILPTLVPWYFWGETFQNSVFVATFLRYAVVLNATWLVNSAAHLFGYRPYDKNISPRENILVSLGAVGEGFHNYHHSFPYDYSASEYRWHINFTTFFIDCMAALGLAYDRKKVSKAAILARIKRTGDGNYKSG
The experiment is described as follows: SCD enzyme activity assay, reconstituted human SCD1 (hSCD-1). It is filed as biochemical. As for the experimental part:
The potency of compounds of formula I against the stearoyl-CoA desaturase was determined by measuring the conversion of radiolabeled stearoyl-CoA to oleoyl-CoA using rat liver microsome or human SCD1 (hSCD-1) following previously published procedures with some modifications (Joshi, et al., J. Lipid Res., 18: 32-36 (1977); Talamo, et al., Anal. Biochem, 29: 300-304 (1969)). Liver microsome was prepared from male Wistar or Sprague Dawley rats on a high carbohydrate diet for 3 days (LabDiet #5803, Purina). The livers were homogenized (1:10 w/v) in a buffer containing 250 mM sucrose, 1 mM EDTA, 5 mM DTT and 50 mM Tris-HCl (pH 7.5). After a 100,000×g centrifugation for 60 min, the liver microsome pellet was suspended in a buffer containing 100 mM sodium phosphate, 20% glycerol, 2 mM DTT, and stored at −78° C. Human SCD1 desaturase system was reconstituted using human SCD1 from a baculovirus/Sf9 expression system, cytochrome B5 and cytochrome B5 reductase. Typically, test compound in 2 μL DMSO was incubated for 15 min at room temperature with 180 μL of the SCD enzyme in a buffer containing 100 mM Tris-HCl (pH 7.5), ATP (5 mM), Coenzyme-A (0.1 mM), Triton X-100 (0.5 mM) and NADH (2 mM). The reaction was initiated by the addition of 20 μL of [^3H]-stearoyl-CoA (final concentration=2 μM, radioactivity concentration=1 μCi/mL). After 10 min, the reaction mixture (80 μL) was mixed with a calcium chloride/charcoal aqueous suspension (100 μL charcoal (10% w/v) plus 25 μL CaCl2 (2N). After centrifugation to precipitate the radioactive fatty acid species, tritiated water released from 9,10-[^3H]-stearoyl-CoA by the SCD enzyme was quantified on a scintillation counter.
What is called IC50 is the concentration that gives 50% inhibition. Read a high IC50 as a need for much substance. `O=C(O)Cn1nnc(-c2cnc(N3CC4(CCN(c5cc(F)ccc5Cl)CC4)C3)s2)n1` gave an IC50 of 45 nM. This lies in the double-digit nanomolar range.

Molecule `O=C(O)Cn1nnc(-c2cnc(N3CC4(C3)CN(c3cc(F)ccc3Cl)C4)s2)n1` displayed an IC50 of 11 nM.

For the molecule `O=C(O)Cn1nnc(-c2cnc(N3CC4CN(c5cc(Cl)ccc5Cl)CC4C3)s2)n1` (centres unmarked), the IC50 worked out at 13 nM.

Take `O=C(O)Cn1nnc(-c2cnc(N3CC4CN(c5cc(Cl)cc(F)c5Cl)CC4C3)s2)n1` (centres unmarked): the IC50 was found to be 13 nM. This lies in the double-digit nanomolar range.

In the case of `O=C(O)Cn1nnc(-c2cnc(N3CC4CN(c5cc(OC(F)(F)F)ccc5Cl)CC4C3)s2)n1` (centres unmarked), the IC50 turned out to be 10 nM.

In turn, `O=C(O)Cn1nnc(-c2cc(N3CC4CN(c5cc(F)ccc5Cl)CC4C3)no2)n1` (centres unmarked) displayed an IC50 of 27 nM.

Molecule `O=C(O)Cn1nnc(-c2cnc(N3CCC4(CCN(c5ccccc5Cl)C4)C3)s2)n1` (centres unmarked) registered an IC50 of 161 nM.

`O=C(O)Cn1nnc(-c2cnc(N3CCC4(CC3)CN(c3cc(F)ccc3Cl)C4)s2)n1` displayed an IC50 of 39 nM.

`O=C(O)Cn1nnc(-c2cnc(N3CC4CN(c5cc(C(F)(F)F)ccc5Br)CC4C3)s2)n1` (centres unmarked) showed an IC50 of 14 nM.

In the case of `O=C(O)Cn1nnc(-c2cnc(N3CC4CN(c5cc(F)ccc5Br)CC4C3)nc2)n1` (centres unmarked), it took 77 nM to reach half-maximal inhibition (IC50).

Regarding `O=C(O)Cn1nnc(-c2cnc(N3CC4CN(c5cc(F)ccc5Cl)CC4C3)s2)n1` (centres unmarked), the IC50 worked out at 12 nM.

The values above are taken from US20120010186A1, “HETEROCYCLIC COMPOUNDS AS INHIBITORS OF STEAROYL-COENZYME A DELTA-9 DESATURASE” (MERCK FROSST CANADA LTD., priority 2009, published 2012).
